# In patent publication US20230027361A1, “METTL3 MODULATORS” (priority 2019, published 2023):
# Where two headings read alike, the source gives them in different places.
# Key:
# METTL3/METTL14 = METTL3/METTL14 (Homo sapiens, UniProt Q86U44); assay: METTL3-14 Standard Enzyme Assay (METTL3 biochemical assay)
# Outline: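 Tritium transfer from ³H-SAM (100 nM) to biotinylated RNA (100 nM) captured on streptavidin flashplates and counted by scintillation. Enzyme complex (2.5 nM) with compound, 5 min preincubation, 30 min reaction at ambient temperature, HEPES pH 7.5 buffer, stopped by excess unlabeled SAM.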
# PRMT5-MEP50 = PRMT5-MEP50 (Homo sapiens, UniProt O14744); assay: PRMT5 Assay (PRMT5 biochemical assay)
# Outline: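 Radiometric methyltransferase read-out: after 60 min reaction, excess unlabelled SAM (15 μM) stops turnover and biotinylated H4 peptide (100 nM) carrying 3H-methyl from 250 nM 3H-SAM is captured on streptavidin flashplates (2 h, 25° C) for scintillation counting. Enzyme, 2.5 nM PRMT5-MEP50, was preincubated 5 min with compound in pH 8.0 Tris buffer with DTT and Tween.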
# MOLM-13 cells [1] = assay: MOLM-13 48 Hour Cell Proliferation Assay; assay type: cell-based; settings: Homo sapiens
# Description: MOLM-13 (DSMZ) cells were seeded at 1000 cells per well in a volume of 44 μL in a Falcon 384-well tissue culture treated clear bottom microplate in RPMI 1640 media containing 10% fetal bovine serum using a Multidrop Combi (ThermoFisher Scientific). Cells were incubated overnight at 37° C. in a humidified tissue culture incubator. The Mosquito® HTS Liquid Handler was used to make a compound/media intermediate plate by aliquoting 1 μL of compound from the initial compound dilution plate (concentrations ranging from 10.0 mM to 38.0 nM in 100% DMSO) into a V bottom 384-well screen matrix plate containing 49 μL of media containing the appropriate serum (50-fold dilution, 2% DMSO). The Apricot liquid handling system was used to transfer 6.2 μL compounds from the intermediate plate into the Falcon 384-well tissue culture plate containing 44 μL cells (10-point, 4-fold dilution spanning concentrations 25.0 μM to […], 0.25% DMSO final), and placed in a humidified tissue culture incubator at 37° C. After 48 hours, 25 μL of Cell Titer-Glo reagent (Promega) was added to each well using a Multidrop Combi. The plate was protected from light and placed on an IKA plate shaker for at 300 rpm for 10 minutes at room temperature. The plate was read on an EnVision plate reader (Perkin Elmer) using the Ultra Sensitive Luminescence protocol. Data analysis was performed by normalizing the raw luminescence units to an average of the positive control values for staurosporine (100% cell death) and the negative control values for DMSO (0% cell death). An IC50 was calculated using a 4-parameter logistic nonlinear regression model in GraphPad Prism.
# MOLM-13 cells [2] = assay: MOLM-13 96 Hour Cell Proliferation Assay; assay type: cell-based; settings: Homo sapiens
# Description: MOLM-13 (DSMZ) cells were seeded at 600 cells per well in a volume of 44 μL in a Greiner Bio-One CELLSTAR™ 384 Well Polystyrene Cell Culture clear bottom microplate in RPMI 1640 media containing 10% fetal bovine serum using a Multidrop Combi (ThermoFisher Scientific). Cells were incubated overnight at 37° C. in a humidified tissue culture incubator. To prevent evaporation or to reduce edge effect, add 50 μL or more H2O to an empty plate, cover, and place on top of the cell plates. The Mosquito® HTS Liquid Handler was used to make a compound/media intermediate plate by aliquoting 1 μL of compound from the initial compound dilution plate (concentrations ranging from 10.0 mM to 38.0 nM in 100% DMSO) into Bio-One 384-well polypropylene conical bottom microplate containing 49 μL of media containing the appropriate serum (50-fold dilution, 2% DMSO, compound concentrations ranging from 200.0 μM and […]). The Apricot liquid handling system was used to transfer 6.2 μL compounds from the intermediate plate into the seeding plate containing 44 μL cells (8-fold dilution spanning concentrations 25.0 μM to […], 0.25% DMSO final), and placed in a humidified tissue culture incubator at 37° C. After 96 hours, 25 μL of Cell Titer-Glo reagent (Promega) was added to each well using an Integra liquid handling system. The plate was protected from light using TopSeal-A (Black) film over the entire plate, added White Bottom seal film on the bottom of the entire plate for a better reading on the Envision, and placed on an IKA plate shaker for at 300 rpm for 10 minutes at room temperature. The plate was read on an EnVision plate reader (Perkin Elmer) using the Ultra Sensitive Luminescence protocol. Data analysis was performed by normalizing the raw luminescence units to an average of the positive control values for staurosporine (100% cell death) and the negative control values for DMSO (0% cell death). An IC50 was calculated using a 4-parameter logistic nonlinear regression model in GraphPad Prism.
# METTL1/WDR4 = METTL1/WDR4 (Homo sapiens, UniProt Q9UBP6); assay: METTL1 Assay (METTL1 biochemical assay); settings: read-out: METTL1 IC50; METTL1 biochemical assay
# Outline: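 Radiometric methyltransfer by METTL1/WDR4 (6.25 nM f.c., 5 min preincubation) at ambient temperature in HEPES pH 7.5, KCl, MgCl2, DTT; started with 25 nM 3′-biotinylated RNA and 60 nM 3H-SAM, run 20 min, quenched with 15 μM cold SAM. Product captured on streptavidin flashplates (2 h, 25° C), counted by scintillation.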
# [3] = METTL3 biochemical assay, read-out: METTL3 IC50
# [4] = PRMT5 biochemical assay, read-out: PRMT5 IC50
# Chain of PRMT5-MEP50 (O14744 whole entry): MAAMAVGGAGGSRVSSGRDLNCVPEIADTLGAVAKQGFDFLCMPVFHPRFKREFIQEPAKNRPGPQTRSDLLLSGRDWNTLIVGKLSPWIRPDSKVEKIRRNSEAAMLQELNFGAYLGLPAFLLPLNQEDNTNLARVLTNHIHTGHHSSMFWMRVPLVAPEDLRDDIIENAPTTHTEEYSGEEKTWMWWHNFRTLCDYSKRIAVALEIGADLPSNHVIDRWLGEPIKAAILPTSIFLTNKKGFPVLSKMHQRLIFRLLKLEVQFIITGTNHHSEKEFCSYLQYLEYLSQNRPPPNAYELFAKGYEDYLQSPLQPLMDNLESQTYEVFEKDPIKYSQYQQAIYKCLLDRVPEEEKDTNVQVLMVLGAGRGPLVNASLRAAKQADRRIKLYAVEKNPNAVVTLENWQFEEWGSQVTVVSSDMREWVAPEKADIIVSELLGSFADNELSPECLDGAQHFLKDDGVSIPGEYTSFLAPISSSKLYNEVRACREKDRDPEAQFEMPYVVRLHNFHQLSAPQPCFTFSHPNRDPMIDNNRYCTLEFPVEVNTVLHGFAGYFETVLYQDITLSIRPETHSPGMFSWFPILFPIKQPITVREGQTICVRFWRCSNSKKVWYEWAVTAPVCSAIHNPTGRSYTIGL
# Chain of PRMT5-MEP50 (Q9BQA1 whole entry partner): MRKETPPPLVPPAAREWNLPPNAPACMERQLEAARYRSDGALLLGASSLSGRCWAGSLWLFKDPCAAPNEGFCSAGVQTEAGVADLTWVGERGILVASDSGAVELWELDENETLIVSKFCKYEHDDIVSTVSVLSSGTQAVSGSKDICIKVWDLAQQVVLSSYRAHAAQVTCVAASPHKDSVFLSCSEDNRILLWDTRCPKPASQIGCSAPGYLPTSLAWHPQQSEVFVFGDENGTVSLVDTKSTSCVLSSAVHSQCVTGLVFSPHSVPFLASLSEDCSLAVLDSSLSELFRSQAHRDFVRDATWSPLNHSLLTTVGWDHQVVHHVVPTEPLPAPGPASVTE
# Chain of METTL3/METTL14 (Q86U44 whole entry, species assumed): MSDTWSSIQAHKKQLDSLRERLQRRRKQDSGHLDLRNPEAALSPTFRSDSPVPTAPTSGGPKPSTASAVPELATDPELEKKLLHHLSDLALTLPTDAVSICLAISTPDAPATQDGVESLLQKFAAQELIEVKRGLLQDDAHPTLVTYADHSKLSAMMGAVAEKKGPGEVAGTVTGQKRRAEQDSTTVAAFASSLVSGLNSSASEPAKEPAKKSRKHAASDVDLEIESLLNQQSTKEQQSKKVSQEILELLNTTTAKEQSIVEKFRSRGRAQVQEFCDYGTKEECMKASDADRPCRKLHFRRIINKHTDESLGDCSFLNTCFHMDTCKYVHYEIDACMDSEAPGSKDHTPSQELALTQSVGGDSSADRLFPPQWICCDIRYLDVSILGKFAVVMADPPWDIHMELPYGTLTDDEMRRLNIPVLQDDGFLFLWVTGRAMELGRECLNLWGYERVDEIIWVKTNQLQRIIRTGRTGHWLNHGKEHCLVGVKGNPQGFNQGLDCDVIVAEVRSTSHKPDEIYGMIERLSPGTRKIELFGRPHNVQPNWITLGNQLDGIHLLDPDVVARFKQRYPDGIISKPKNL
# Chain of METTL3/METTL14 (Q9HCE5 whole entry partner, species assumed): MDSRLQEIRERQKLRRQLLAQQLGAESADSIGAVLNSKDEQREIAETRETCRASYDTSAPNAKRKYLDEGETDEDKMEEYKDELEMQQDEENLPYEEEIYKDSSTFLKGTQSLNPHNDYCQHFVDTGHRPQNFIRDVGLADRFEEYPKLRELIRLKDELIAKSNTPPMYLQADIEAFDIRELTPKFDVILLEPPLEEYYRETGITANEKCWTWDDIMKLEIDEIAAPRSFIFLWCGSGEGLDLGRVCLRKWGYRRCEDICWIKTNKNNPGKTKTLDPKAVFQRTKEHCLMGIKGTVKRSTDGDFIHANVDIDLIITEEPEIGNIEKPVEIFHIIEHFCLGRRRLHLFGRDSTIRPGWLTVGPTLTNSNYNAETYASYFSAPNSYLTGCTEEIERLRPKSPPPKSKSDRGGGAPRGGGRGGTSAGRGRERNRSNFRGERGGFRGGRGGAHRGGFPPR
# Chain of METTL1/WDR4 (Q9UBP6 whole entry, species assumed): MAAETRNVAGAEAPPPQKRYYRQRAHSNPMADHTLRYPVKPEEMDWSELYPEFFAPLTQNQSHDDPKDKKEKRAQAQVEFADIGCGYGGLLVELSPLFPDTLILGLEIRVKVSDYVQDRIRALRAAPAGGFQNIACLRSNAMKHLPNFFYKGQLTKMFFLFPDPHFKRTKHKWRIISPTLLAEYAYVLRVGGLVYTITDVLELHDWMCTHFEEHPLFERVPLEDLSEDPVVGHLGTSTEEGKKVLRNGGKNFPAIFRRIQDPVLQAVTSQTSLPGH
# Chain of METTL1/WDR4 (P57081 whole entry partner, species assumed): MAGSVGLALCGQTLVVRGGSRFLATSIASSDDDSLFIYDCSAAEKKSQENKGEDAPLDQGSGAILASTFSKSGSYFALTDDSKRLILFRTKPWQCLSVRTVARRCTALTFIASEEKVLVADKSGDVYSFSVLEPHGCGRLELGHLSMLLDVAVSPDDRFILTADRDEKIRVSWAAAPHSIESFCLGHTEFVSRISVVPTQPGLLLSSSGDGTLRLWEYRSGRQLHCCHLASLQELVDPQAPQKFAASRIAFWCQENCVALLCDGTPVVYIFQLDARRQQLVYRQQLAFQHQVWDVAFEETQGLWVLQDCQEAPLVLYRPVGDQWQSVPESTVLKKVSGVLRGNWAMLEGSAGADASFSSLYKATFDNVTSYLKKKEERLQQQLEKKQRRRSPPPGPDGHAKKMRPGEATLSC
Compound,IC50 (METTL3/METTL14),IC50 (PRMT5-MEP50),IC50 (MOLM-13 cells [1]),IC50 (MOLM-13 cells [2]),IC50 (METTL3/METTL14; [3]),IC50 (METTL1/WDR4),IC50 (PRMT5-MEP50; [4]),"IC50 (MOLM-13 cells [2]; MOLM-13, 96 h)"
CN(CCO)c1ccc2ccc(OC[C@H]3O[C@@H](n4cc(-c5ccn(C)n5)c5c(N)ncnc54)[C@@H](F)[C@@H]3O)cc2n1 [I-162],< 0.01 µM,> 1 µM,1 to 10 µM,< 1 µM,,,,
CNc1ccc2ccc(CC[C@H]3C[C@@H](n4ccc5c(N)ncnc54)[C@H](O)[C@@H]3O)cc2n1 [I-123],,,> 10 µM,,< 0.01 µM,> 1 µM,< 0.01 µM,< 1 µM
Nc1ccc2ccc(CC[C@H]3C[C@@H](n4cc(C5CCCC5)c5c(N)ncnc54)[C@H](O)[C@@H]3O)cc2n1 [I-60],,,1 to 10 µM,,0.01 to 0.1 µM,> 1 µM,< 0.01 µM,< 1 µM
Nc1ncnc2c1c(CO)cn2[C@@H]1O[C@H](COc2ccc3ccc(N4CCC4)nc3c2)[C@@H](O)[C@@H]1F [I-163],,,1 to 10 µM,,< 0.01 µM,,> 1 µM,1 to 10 µM
Nc1ncnc2c1ccn2[C@H]1C[C@H](O)[C@@H](COc2ccc3ccc(N4CCC4)nc3c2)O1 [I-165],,,> 10 µM,,< 0.01 µM,,> 1 µM,1 to 10 µM
Nc1ncnc2c1c(-n1ccc(C(F)(F)F)n1)cn2[C@@H]1O[C@H](COc2ccc3ccc(N4CCC4)nc3c2)[C@@H](O)[C@@H]1F [I-221],< 0.01 µM,> 1 µM,1 to 10 µM,1 to 10 µM,,,,
Nc1ncnc2c1ccn2[C@H]1C[C@H](O)[C@@H](COc2ccc3ccc(NC4CC4)nc3c2)O1 [I-180],,,> 10 µM,,0.01 to 0.1 µM,,0.1 to 1 µM,> 10 µM
Nc1ncnc2c1c(-n1ccc(C(F)(F)F)n1)cn2[C@H]1C[C@H](O)[C@@H](COc2ccc3ccc(N4CCC4)nc3c2)O1 [I-178],< 0.01 µM,> 1 µM,1 to 10 µM,1 to 10 µM,,,,
Cn1ccc(-c2cn([C@@H]3O[C@H](COc4ccc5ccc(N6CC(N)C6)nc5c4)[C@@H](O)[C@@H]3F)c3ncnc(N)c23)n1 [I-181],< 0.01 µM,> 1 µM,< 1 µM,< 1 µM,,,,
